Results from US20240018119A1, “CARBOXAMIDE DERIVATIVE AND PHARMACEUTICAL COMPOSITION COMPRISING SAME AS ACTIVE INGREDIENT FOR PREVENTING OR TREATING MENTAL ILLNESS” (DAEGU-GYEONGBUK MEDICAL INNOVATION FOUNDATION, priority 2020, published 2024).

How the values were obtained:
Format in all cases: cell-based
dopamine transporter = biological target: T1, dopamine transporter (Homo sapiens, UniProt Q01959); test: Dopamine reuptake inhibition in transporter-transfected HEK-293 cells ([3H]-DA); conditions: for Triple reuptake inhibition (Ratio %) DAT: compound 1 μM, 20-30 nM [3H]-DA, relative to control without compound (100%), lower = more inhibition; for IC50: concentration at which Ratio % is 50%, 6 concentrations 1 nM to 1 μM, read-out: Triple reuptake inhibition (IC50, μM) DAT
T1 construct: expressed in transfected cells; host or cells: HEK-293
Method: (§1) To evaluate the reuptake inhibitory effect on dopamine, the dopamine transporter cDNA was transfected using the HEK-293 cell line, and then sub-seeded in a 24 well plate the next day. After removing the medium, each compound of the Examples or Comparative Examples diluted to 1 μM in uptake buffer was added to a concentration of 200 μl/well and cultured at 37° C. for 15 minutes. 100 μl of uptake buffer containing 20-30 nM [3H]-DA was added and cultured at 37° C. for 5 minutes. The reaction solution was quickly removed and washed three times with 1 ml ice-cold uptake buffer. After dissolving the resultant in 1% SDS (0.5 ml), the degree of binding of radioisotope-labeled dopamine to the transporter was measured.
(§2) In addition, when evaluating the reuptake inhibitory effect on dopamine, norepinephrine, and serotonin, the same method was performed without treating each compound of the Examples or Comparative Examples as a control, the degree of binding of radioisotope-labeled dopamine, norepinephrine, and serotonin to the transporter was measured, and by using this as a standard (100%), the triple reuptake inhibitory effect was evaluated as a relative ratio (Ratio %). That is, in the control group, the binding of dopamine, norepinephrine, and serotonin to transporters is not inhibited, but when each compound of the Examples is treated and thus the binding is inhibited, the Patio % value decreases.
(§3) Meanwhile, the Patio % values were compared, and in the case of the compounds of Examples 6, 9, 10, 19, 20, 22, 24, 28, 30, 31, 32, 33, 35, 41, 42, 48, 49, 51, 55, 56, 59, 61, 63, 64, 65, 66, 74 and 76 with excellent reuptake inhibitory effects on dopamine, norepinephrine and serotonin, the concentration at which the Ratio % is 50% was calculated using a total of 6 concentrations (1 nM, 5 nM, 10 nM, 50 nM, 100 nM, and 1 μM) and expressed as IC50. In addition, in the case of the compound of Comparative Example 1, IC50 was obtained by the same method as the Example Compounds.

[1] = biological target: T2, norepinephrine transporter (Homo sapiens, UniProt P23975); test: Norepinephrine reuptake inhibition in transporter-transfected HEK-293 cells ([3H]-NE); conditions: for Triple reuptake inhibition (Ratio %) NET: compound 1 μM, [3H]-NE, relative to control without compound (100%), lower = more inhibition; for IC50: concentration at which Ratio % is 50%, 6 concentrations 1 nM to 1 μM, read-out: Triple reuptake inhibition (IC50, μM) NET
T2 construct: expressed in transfected cells; host or cells: HEK-293
Method: as §1
(§4) For norepinephrine (NE) and serotonin (5-HT), the degree of binding of radioisotope-labeled norepinephrine or serotonin to the transporter was measured in the same manner as above, except that cells transfected with NE or 5-HT transporter cDNA were used and [3H]-NE or [3H]-5-HT was used as a substrate.
as §2, §3

serotonin transporter = biological target: T3, serotonin transporter (Homo sapiens, UniProt P31645); test: Serotonin reuptake inhibition in transporter-transfected HEK-293 cells ([3H]-5-HT); conditions: for Triple reuptake inhibition (Ratio %) SERT: compound 1 μM, [3H]-5-HT, relative to control without compound (100%), lower = more inhibition; for IC50: concentration at which Ratio % is 50%, 6 concentrations 1 nM to 1 μM, read-out: Triple reuptake inhibition (IC50, μM) SERT
T3 construct: expressed in transfected cells; host or cells: HEK-293
Method: as §1, §4, §2
In addition, in the case of the compound of Comparative Example 1, IC50 was obtained by the same method as the Example Compounds.

T2 sequence (P23975 whole entry, species assumed): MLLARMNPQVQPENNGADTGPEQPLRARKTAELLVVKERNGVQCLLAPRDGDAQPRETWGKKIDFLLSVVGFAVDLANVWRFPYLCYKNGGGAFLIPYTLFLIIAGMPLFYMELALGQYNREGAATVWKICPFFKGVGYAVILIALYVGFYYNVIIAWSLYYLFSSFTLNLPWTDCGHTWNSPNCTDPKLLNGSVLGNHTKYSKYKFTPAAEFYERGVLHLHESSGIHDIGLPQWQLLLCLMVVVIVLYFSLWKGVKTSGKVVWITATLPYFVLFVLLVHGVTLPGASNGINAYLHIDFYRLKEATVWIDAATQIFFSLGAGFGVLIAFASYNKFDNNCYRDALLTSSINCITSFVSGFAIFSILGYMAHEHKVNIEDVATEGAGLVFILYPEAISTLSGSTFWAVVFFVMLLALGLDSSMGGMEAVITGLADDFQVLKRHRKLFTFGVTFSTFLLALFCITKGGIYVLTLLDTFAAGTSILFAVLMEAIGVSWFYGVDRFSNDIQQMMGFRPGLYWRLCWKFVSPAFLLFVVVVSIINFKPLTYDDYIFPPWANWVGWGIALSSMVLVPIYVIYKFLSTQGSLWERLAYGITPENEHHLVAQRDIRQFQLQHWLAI
T1 sequence (Q01959 whole entry): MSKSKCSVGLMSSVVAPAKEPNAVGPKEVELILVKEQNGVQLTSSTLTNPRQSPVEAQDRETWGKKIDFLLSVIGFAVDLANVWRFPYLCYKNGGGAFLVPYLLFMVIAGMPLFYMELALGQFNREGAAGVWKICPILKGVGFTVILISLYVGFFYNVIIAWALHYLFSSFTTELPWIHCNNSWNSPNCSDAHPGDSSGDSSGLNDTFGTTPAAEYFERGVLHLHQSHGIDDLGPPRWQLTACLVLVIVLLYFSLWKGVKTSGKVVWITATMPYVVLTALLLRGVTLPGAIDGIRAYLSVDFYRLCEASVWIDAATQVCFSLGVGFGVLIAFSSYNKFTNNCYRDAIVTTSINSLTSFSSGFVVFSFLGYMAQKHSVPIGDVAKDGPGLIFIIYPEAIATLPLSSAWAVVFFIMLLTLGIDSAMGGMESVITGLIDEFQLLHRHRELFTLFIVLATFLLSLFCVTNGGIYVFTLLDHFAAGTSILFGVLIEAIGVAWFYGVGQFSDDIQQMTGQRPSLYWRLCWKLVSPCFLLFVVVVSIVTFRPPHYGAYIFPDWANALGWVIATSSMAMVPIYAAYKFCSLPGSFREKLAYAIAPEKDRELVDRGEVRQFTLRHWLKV
T3 sequence (P31645 whole entry): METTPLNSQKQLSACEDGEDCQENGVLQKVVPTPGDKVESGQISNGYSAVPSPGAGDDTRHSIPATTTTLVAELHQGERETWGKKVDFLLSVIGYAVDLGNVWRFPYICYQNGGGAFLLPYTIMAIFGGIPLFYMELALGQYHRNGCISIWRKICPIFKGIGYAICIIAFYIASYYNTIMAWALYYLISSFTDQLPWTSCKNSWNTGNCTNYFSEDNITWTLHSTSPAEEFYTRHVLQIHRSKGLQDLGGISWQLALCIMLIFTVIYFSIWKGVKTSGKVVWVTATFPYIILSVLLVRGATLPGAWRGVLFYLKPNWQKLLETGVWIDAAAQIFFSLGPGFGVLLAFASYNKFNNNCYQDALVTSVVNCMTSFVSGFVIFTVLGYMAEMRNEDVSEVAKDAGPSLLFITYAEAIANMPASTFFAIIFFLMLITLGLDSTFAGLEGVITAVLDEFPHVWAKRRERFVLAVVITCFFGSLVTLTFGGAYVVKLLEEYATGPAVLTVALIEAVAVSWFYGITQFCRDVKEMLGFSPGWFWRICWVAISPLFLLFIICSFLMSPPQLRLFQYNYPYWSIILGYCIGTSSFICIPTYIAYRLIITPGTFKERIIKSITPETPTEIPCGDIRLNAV

Row | SMILES | Triple reuptake inhibition (Ratio %) DAT (dopamine transporter) [%] | IC50 (dopamine transporter) [µM] | Triple reuptake inhibition (Ratio %) NET [1] [%] | IC50 [1] [µM] | Triple reuptake inhibition (Ratio %) SERT (serotonin transporter) [%] | IC50 (serotonin transporter) [µM]
1 | CCCCOc1ccc2cc(C(=O)NCCN3CCC(Cc4ccccc4)CC3)[nH]c2c1 [Example 42, N-(2-(4-benzylpiperidin-1-yl)ethyl)-6-butoxy-1H-indol-2-carboxamide] | 45.67 | 0.338 | 44.53 | 0.171 | 46.64 | 0.68
2 | CC(CN1CCC(Cc2ccccc2)CC1)NC(=O)c1cc2ccccc2[nH]1 (stereo not drawn) [Example 43, N-(1-(4-benzylpiperidin-1-yl)propan-2-yl)-1H-indol-2-carboxamide] | 30.29 |  | 56.98 |  | 81.76 | 
3 | O=C(NC1CCC(Cc2ccccc2)CC1)c1cc2ccccc2[nH]1 (stereo not drawn) [Example 44, N-(4-benzylcyclohexyl)-1H-indol-2-carboxamide] | 73.05 |  | 85.48 |  | 94.19 | 
4 | O=C(NCCNC(=O)c1cc2ccccc2[nH]1)c1ccc2ccccc2c1 [Example 45, N-(2-(2-naphthamido)ethyl)-1H-indol-2-carboxamide] | 110.91 |  | 102.98 |  | 91.05 | 
5 | O=C(NCCN1CCC(Cc2ccccc2)CC1)c1cc2cc(OCc3ccccc3)ccc2[nH]1 [Example 46, 5-(benzyloxy)-N-(2-(4-benzylpiperidin-1-yl)ethyl)-1H-indol-2-carboxamide] | 77.49 |  | 110.55 |  | 42.91 | 
6 | O=C(NCCN1CCC(Cc2ccccc2)CC1)c1cc2cc(Cl)c(Cl)cc2[nH]1 [Example 47, N-(2-(4-benzylpiperidin-1-yl)ethyl)-5,6-dichloro-1H-indol-2-carboxamide] | 41.80 |  | 94.59 |  | 75.98 | 
7 | COc1cc2cc(C(=O)NCCN3CCC(Cc4ccc(Cl)c(Cl)c4)CC3)[nH]c2cc1OC [Example 48] | 2.88 | 0.028 | 9.75 | 0.398 | 5.27 | 0.123
8 | O=C(NCCN1CCC(Cc2ccccc2)CC1)c1cc2cc(F)ccc2[nH]1 [Example 49] | 24.67 | 0.138 | 26.73 | 0.561 | 62.50 | 1.47
9 | O=C(NCC(=O)N1CCC(Cc2ccccc2)CC1)c1cc2ccccc2[nH]1 [Example 50, N-(2-(4-benzylpiperidin-1-yl)-2-oxoethyl)-1H-indol-2-carboxamide] | 108.32 |  | 93.21 |  | 100.83 | 
10 | O=C(NCCN1CCC(Cc2ccc(Cl)c(Cl)c2)CC1)c1cc2cc(F)ccc2[nH]1 [Example 51, N-(2-(4-(3,4-dichlorobenzyl)piperidin-1-yl)ethyl)-5-fluoro-1H-indol-2-carboxamide] | 41.61 | 0.636 | 83.07 |  | 27.71 | 0.331
11 | O=C(NCCn1ccc(-c2ccc(F)cn2)n1)c1cc2ccccc2[nH]1 [Example 52, N-(2-(3-(5-fluoropyridin-2-yl)-1H-pyrazol-1-yl)ethyl)-1H-indol-2-carboxamide] | 85.39 |  | 82.74 |  | 93.19 | 
12 | O=C(NC1(CN2CCC(Cc3ccccc3)CC2)CC1)c1cc2ccccc2[nH]1 [Example 53, N-(1-((4-benzylpiperidin-1-yl)methyl)cyclopropyl)-1H-indol-2-carboxamide] | 86.48 |  | 69.01 |  | 108.82 | 
13 | O=C(NCCNCc1ccc2ccccc2c1)c1cc2ccccc2[nH]1 [Example 54, N-(2-((naphthalen-2-ylmethyl)amino)ethyl)-1H-indol-2-carboxamide] | 79.32 |  | 92.95 |  | 84.69 | 
14 | O=C(NCCN1CCC(Cc2ccccc2)CC1)c1nc2ccccc2s1 [Example 55, N-(2-(4-benzylpiperidin-1-yl)ethyl)benzo[d]thiazol-2-carboxamide] | 39.32 | 2.64 | 57.47 | 2.48 | 53.01 | 3.01
15 | O=C(NCCN1CCC(Cc2ccccc2)CC1)c1cc2cccnc2[nH]1 [Example 56, N-(2-(4-benzylpiperidin-1-yl)ethyl)-1H-pyrrolol[2,3-b]pyridin-2-carboxamide] | 37.06 | 1.48 | 81.84 |  | 76.79 | 
16 | O=C(NCCN1CCC(Cc2ccccc2)CC1)C1Cc2ccccc2N1 (stereo not drawn) [Example 57, N-(2-(4-benzylpiperidin-1-yl)ethyl) indolin-2-carboxamide] | 60.52 |  | 124.77 |  | 77.95 | 
17 | O=C(NCCN1CCC(Cc2ccccc2)CC1)[C@H]1Cc2ccccc2N1 [Example 58, (R)—N-(2-(4-benzylpiperidin-1-yl)ethyl)indolin-2-carboxamide] | 66.26 |  | 82.39 |  | 105.84 | 
18 | COc1ccc2[nH]c(C(=O)NCCN3CCC(Cc4ccccc4)CC3)nc2c1 [Example 59, N-(2-(4-benzylpiperidin-1-yl)ethyl)-5-methoxy-1H-benzo[d]imidazol-2-carboxamide] | 17.60 | 0.198 | 43.43 | 0.257 | 45.80 | 0.198
19 | O=C(NCCN1CCC(Cc2ccccc2)CC1)c1nc2cc(F)ccc2s1 [Example 60, N-(2-(4-benzylpiperidin-1-yl)ethyl)-5-fluorobenzo(d)thiazol-2-carboxamide] | 68.95 |  | 50.81 |  | 53.40 | 
20 | O=C(NCCN1CCC(Cc2ccccc2)CC1)c1nc2ccccc2[nH]1 [Example 61, N-(2-(4-benzylpiperidin-1-yl)ethyl)-1H-benzo[d]imidazol-2-carboxamide] | 32.78 | 0.97 | 73.75 | 3.17 | 62.21 | 2.28
